The results in this text go back to patent publication US6407103B2, “Indeno [1,2-c] pyrazol-4-ones and their uses” (Bristol-Myers Squibb Pharma Company, priority 1998, dated 2002).

Where a name gives a salt, the structure may show the parent alone.

As a reminder, the melting point is the temperature, or range, at which the solid turns liquid. `O=C(Nc1cccc2c1C(=O)c1c-2n[nH]c1-c1ccc(C(=O)NC2CCCNC2)s1)NN1CCOCC1` (stereo not shown) (as salt: TFA) [Example CLXVIII, 3-(5-((3-piperidyl)aminocarbonyl)-2-thienyl)-5-(morpholinocarbamoylamino)indeno[1,2-c]pyrazol-4-one] yielded a melting point greater than 300 °C.
To `NC1CCCC(NC(=O)c2ccc(-c3[nH]nc4c3C(=O)c3c(NC(=O)NN5CCOCC5)cccc3-4)s2)C1` (stereo not shown) (as salt: TFA) [Example CLXX, 3-(5-((3-aminocyclohexyl)aminocarbonyl)-2-thienyl)-5-(morpholinocarbamoylamino)indeno[1,2-c]pyrazol-4-one] belongs greater than 300 °C; to `CC(C)(C)OC(=O)NC1CCCC(NC(=O)c2ccc(-c3[nH]nc4c3C(=O)c3c(NC(=O)NN5CCOCC5)cccc3-4)s2)C1` (stereo not shown) (as salt: TFA) [Example CLXXI, 3-(5-((3-(t-butoxycarbonylamino)cyclohexyl)aminocarbonyl)-2-thienyl)-5-(morpholinocarbamoylamino)indeno[1,2-c]pyrazol-4-one], greater than 300 °C; to `CN(C)CC1CCCCN1C(=O)c1ccc(-c2[nH]nc3c2C(=O)c2c(NC(=O)NN4CCOCC4)cccc2-3)s1` (stereo not shown) (as salt: TFA) [Example CLXXII, 3-(5-(2-(N,N-dimethylaminomethyl)piperidinocarbonyl)-2-thienyl)-5-(morpholinocarbamoylamino)indeno[1,2-c]pyrazol-4-one], greater than 300 °C.
In turn, `CCN(CC)CC1CCCCN1C(=O)c1ccc(-c2[nH]nc3c2C(=O)c2c(NC(=O)NN4CCOCC4)cccc2-3)s1` (stereo not shown) (as salt: TFA) [Example CLXXIII, 3-(5-(2-(N,N-diethylaminomethyl)piperidinocarbonyl)-2-thienyl)-5-(morpholinocarbamoylamino)indeno[1,2-c]pyrazol-4-one] had a melting point of 210 °C.
The same measure for `O=C(Nc1cccc2c1C(=O)c1c-2n[nH]c1-c1ccc(C(=O)N2CCCC2)s1)NN1CCOCC1` (as salt: TFA) [Example CLXXIV, 3-(5-pyrrolidinocarbonyl-2-thienyl)-5-(morpholinocarbamoylamino)indeno[1,2-c]pyrazol-4-one]: greater than 300 °C; for `CN(C(=O)OC(C)(C)C)[C@H]1CCN(C(=O)c2ccc(-c3[nH]nc4c3C(=O)c3c(NC(=O)NN5CCOCC5)cccc3-4)s2)C1` (as salt: TFA) [Example CLXXIX, 3-(5-(3(S)-(N-methyl-t-butoxycarbonylamino)pyrrolidinocarbonyl)-2-thienyl)-5-(morpholinocarbamoylamino)indeno[1,2-c]pyrazol-4-one]: greater than 300 °C; for `NC1CCN(C(=O)c2ccc(-c3[nH]nc4c3C(=O)c3c(NC(=O)NN5CCOCC5)cccc3-4)s2)C1` (stereo not shown) (as salt: TFA) [Example CLXXV, 3-(5-(3-aminopyrrolidinocarbonyl)-2-thienyl)-5-(morpholinocarbamoylamino)indeno[1,2-c]pyrazol-4-one]: 201 °C.
To `CC(=O)N[C@H]1CCN(C(=O)c2ccc(-c3[nH]nc4c3C(=O)c3c(NC(=O)NN5CCOCC5)cccc3-4)s2)C1` (as salt: TFA) [Example CLXXVII, 3-(5-(3(S)-acetamidopyrrolidinocarbonyl)-2-thienyl)-5-(morpholinocarbamoylamino)indeno[1,2-c]pyrazol-4-one] belongs 264 °C.
`CC(=O)N(C)[C@H]1CCN(C(=O)c2ccc(-c3[nH]nc4c3C(=O)c3c(NC(=O)NN5CCOCC5)cccc3-4)s2)C1` (as salt: TFA) [Example CLXXVIII, 3-(5-(3(S)-(N-methylacetamido)pyrrolidinocarbonyl)-2-thienyl)-5-(morpholinocarbamoylamino)indeno[1,2-c]pyrazol-4-one] registered a melting point greater than 300 °C.
The same measure for `CN(C)C1CCN(C(=O)c2ccc(-c3[nH]nc4c3C(=O)c3c(NC(=O)NN5CCOCC5)cccc3-4)s2)C1` (stereo not shown) (as salt: TFA) [Example CLXXX, 3-(5-(3-(N,N-dimethylamino)pyrrolidinocarbonyl)-2-thienyl)-5-(morpholinocarbamoylamino)indeno[1,2-c]pyrazol-4-one]: 216 °C; for `CN(C)[C@@H]1CCN(C(=O)c2ccc(-c3[nH]nc4c3C(=O)c3c(NC(=O)NN5CCOCC5)cccc3-4)s2)C1` (as salt: TFA) [Example CLXXXI, 3-(5-(3(R)-(N,N-dimethylamino)pyrrolidinocarbonyl)-2-thienyl)-5-(morpholinocarbamoylamino)indeno[1,2-c]pyrazol-4-one]: 265 °C.
Take `CN(C)[C@H]1CCN(C(=O)c2ccc(-c3[nH]nc4c3C(=O)c3c(NC(=O)NN5CCOCC5)cccc3-4)s2)C1` (as salt: TFA) [Example CLXXXII, 3-(5-(3(S)-(N,N-dimethylamino)pyrrolidinocarbonyl)-2-thienyl)-5-(morpholinocarbamoylamino)indeno[1,2-c]pyrazol-4-one]: the melting point came out at 264 °C.
In turn, `CN1CCC(CNC(=O)c2ccc(-c3[nH]nc4c3C(=O)c3c(NC(=O)NN5CCOCC5)cccc3-4)s2)C1` (stereo not shown) (as salt: TFA) [Example CLXXXIII, 3-(5-((1-methylpyrrolidin-3-yl)methylaminocarbonyl)-2-thienyl)-5-(morpholinocarbamoylamino)indeno[1,2-c]pyrazol-4-one] displayed a melting point of 151 °C.
For `O=C(Nc1cccc2c1C(=O)c1c-2n[nH]c1-c1ccc(C(=O)N2CCC[C@@H]2CN2CCCC2)s1)NN1CCOCC1` (as salt: TFA) [Example CLXXXIV, 3-(5-(2(R)-(pyrrolidinomethyl)pyrrolidinocarbonyl)-2-thienyl)-5-(morpholinocarbamoylamino)indeno[1,2-c]pyrazol-4-one], the melting point was determined as 166 °C.
To `O=C(Nc1cccc2c1C(=O)c1c-2n[nH]c1-c1ccc(C(=O)N2CCC[C@H]2CO)s1)NN1CCOCC1` (as salt: TFA) [Example CLXXXV, 3-(5-(2(S)-(hydroxymethyl)pyrrolidinocarbonyl)-2-thienyl)-5-(morpholinocarbamoylamino)indeno[1,2-c]pyrazol-4-one] belongs 267 °C; to `COC[C@H]1CCCN1C(=O)c1ccc(-c2[nH]nc3c2C(=O)c2c(NC(=O)NN4CCOCC4)cccc2-3)s1` (as salt: TFA) [Example CLXXXVI, 3-(5-(2(R)-(methoxymethyl)pyrrolidinocarbonyl)-2-thienyl)-5-(morpholinocarbamoylamino)indeno[1,2-c]pyrazol-4-one], 262 °C; to `O=C(Nc1cccc2c1C(=O)c1c-2n[nH]c1-c1ccc(C(=O)N2CCC[C@H]2CNc2ccccc2)s1)NN1CCOCC1` (as salt: TFA) [Example CLXXXVII, 3-(5-(2(S)-(phenylaminomethyl)pyrrolidinocarbonyl)-2-thienyl)-5-(morpholinocarbamoylamino)indeno[1,2-c]pyrazol-4-one], greater than 300 °C.
The same measure for `COC[C@H]1CCCN1NC(=O)c1ccc(-c2[nH]nc3c2C(=O)c2c(NC(=O)NN4CCOCC4)cccc2-3)s1` (as salt: TFA) [Example CLXXXVIII, 3-(5-(2(R)-(methoxymethyl)pyrrolidinoaminocarbonyl)-2-thienyl)-5-(morpholinocarbamoylamino)indeno[1,2-c]pyrazol-4-one]: 266 °C.
The same measure for `CNc1ccc(NC(=O)c2ccc(-c3[nH]nc4c3C(=O)c3c(NC(=O)NN5CCOCC5)cccc3-4)s2)cc1` (as salt: TFA) [Example CXCVI, 3-(5-((4-methylaminophenyl)aminocarbonyl)-2-thienyl)-5-(morpholinocarbamoylamino)indeno[1,2-c]pyrazol-4-one]: 230 °C; for `CC(=O)Nc1ccc(NC(=O)c2ccc(-c3[nH]nc4c3C(=O)c3c(NC(=O)NN5CCOCC5)cccc3-4)s2)cc1` (as salt: TFA) [Example CXCVII, 3-(5-((4-acetamidophenyl)aminocarbonyl)-2-thienyl)-5-(morpholinocarbamoylamino)indeno[1,2-c]pyrazol-4-one]: 253 °C.
In turn, `CCN(CC)c1ccc(NC(=O)c2ccc(-c3[nH]nc4c3C(=O)c3c(NC(=O)NN5CCOCC5)cccc3-4)s2)cc1` (as salt: TFA) [Example CXCVIII, 3-(5-(4-(diethylamino)phenylaminocarbonyl)-2-thienyl)-5-(morpholinocarbamoylamino)indeno[1,2-c]pyrazol-4-one] displayed a melting point of 198 °C.
As to `O=C(Nc1cccc2c1C(=O)c1c-2n[nH]c1-c1ccc(C(=O)N2CCNCC2)s1)NN1CCOCC1` (as salt: TFA) [Example CXLIX, 3-(5-piperazinocarbonyl-2-thienyl)-5-(morpholinocarbamoylamino)indeno [1,2-c]pyrazol-4-one], the melting point turned out to be 241 °C.
To `O=C(Nc1cccc2c1C(=O)c1c-2n[nH]c1-c1ccc(C(=O)NN2CCCC2)s1)NN1CCOCC1` (as salt: TFA) [Example CXLVI, 3-(5-pyrrolidinoaminocarbonyl-2-thienyl)-5-(morpholinocarbamoylamino)indeno [1,2-c]pyrazol-4-one] belongs 213 °C.
The same measure for `O=C(Nc1cccc2c1C(=O)c1c-2n[nH]c1-c1ccc(C(=O)NN2CCCCC2)s1)NN1CCOCC1` (as salt: TFA) [Example CXLVII, 3-(5-piperidinoaminocarbonyl-2-thienyl)-5-(morpholinocarbamoylamino)indeno [1,2-c]pyrazol-4-one]: 189 °C; for `COc1ccc(-c2[nH]nc3c2C(=O)c2c(NC(=O)Cc4ccc5c(c4)OCO5)cccc2-3)cc1` (hydrate or solvate) [Example XVII, 3-(4-methoxyphenyl)-5-((3,4-methylenedioxyphenyl)acetamido)indeno[1,2-c]pyrazol-4-one]: 297 °C; for `COc1ccc(-c2[nH]nc3c2C(=O)c2c(NC(=O)N[C@@H]4CCCC[C@@H]4N)cccc2-3)cc1` (relative stereo) [Example LXVII, 3-(4-methoxyphenyl)-5-((cis-2-aminocyclohexylcarbamoyl)amino)indeno[1,2-c]pyrazol-4-one]: greater than 300 °C.
The same measure for `NC(=O)Nc1cccc2c1C(=O)c1c-2n[nH]c1-c1ccsc1` [Example C, 3-(3-thienyl)-5-(carbamoylamino)indeno[1,2-c]pyrazol-4-one]: greater than 280 °C.
